Measured values reported in patent publication US20070026080A1, “Manufacturing process for tigecycline” (Wyeth, priority 2005, published 2007).

Assay: Strength and degradation profile of tigecycline 20 mg/mL bulk solutions by reversed phase HPLC (effect of temperature, time, pH, dissolved oxygen; Runs A to O)
Format: physicochemical
Conditions: 8° C.
Protocol: The contents of the sample vials are dissolved in diluent. The sample solution is diluted, if necessary, and chromatographed on a reversed phase column using gradient elution. Impurities are determined by comparing the impurity peak areas in the sample preparation chromatogram to the average area of tigecycline peaks in the standard preparation chromatograms obtained concomitantly.
Chromatographic Column—Length about 15 cm, inside diameter about 4.6 mm, packed with Inertsil ODS2, 5 μm size particles or equivalent.
Detector—Ultraviolet spectrophotometric detector capable of operating at 248 nm with a sensitivity of about 0.5 absorbance units full scale.
The results of additional studies to investigate the effect of processing parameters such as temperature, time, and dissolved oxygen content on the purity profile of tigecycline solutions using the following materials, methods and procedures are presented in Tables A to O.
The experiments were run in plastic glove bags under normal laboratory light conditions. Plastic glove boxes will be used to control the headspace of the beakers. The batch size was 200 mL. • 1. Prepare the glove bag with a mixture of nitrogen and air to achieve an oxygen level in the solution as per the design. • 2. Place the jacketed beaker on the magnetic stirrer. Connect it to the cooler. Set the cooler to the desired set point. • 3. Add 200 mL of SWFI in to the beaker. Allow equilibrating. Measure the temperature and oxygen content. When it reaches the desired condition, add accurately weighed API and mix until dissolved. If necessary use spatula to aid dissolution. For pH adjustments, use 4 mL of either 0.1N NaOH or 0.1N HCl and 196 mL of WFI for manufacture. • 4. After complete dissolution, Transfer about 5.5 mL of Solution in vials and stopper them. These vials will be stoppered at the appropriate headspace conditions. Place the vials in appropriate temperature conditions. • 5. Sample the vials at 1, 4, 8, 10, 12 and 24 hours. Send the samples for analysis. Freeze the 10, 12 and 24 samples at −20° C. for analysis the following day. • 6. Measure pH and record color of the solution at each time point. Results
The 1-hour samples were taken directly from the beakers. Samples for later time points were collected in stoppered vials processed in the atmosphere of the bag in order to simulate the headspace conditions then placed in water baths or refrigerator to maintain there respective temperature conditions. This was done to maintain safety in the lab. Disposable plastic glove bags require constant flow of a mixture of nitrogen and air to maintain headspace oxygen level that will result in the desired dissolved oxygen (DO) content in the sample. The pH of samples was measured at each sample points.
Strength and degradation profile was analyzed by HPLC as described above. […] Degradation was slightly higher at higher temperature condition.

[1] = Run #M, pH 7.7, Oxygen = 0.1 mg/L, 10 Hrs
[2] = Run #M, pH 7.7, Oxygen = 0.1 mg/L, 12 Hrs
[3] = Run #M, pH 7.7, Oxygen = 0.1 mg/L, 24 Hrs
[4] = Run #N, pH 8.2, Oxygen = 0.1 mg/L, 1 Hrs
[5] = Run #N, pH 8.2, Oxygen = 0.1 mg/L, 1R Hrs
[6] = Run #N, pH 8.2, Oxygen = 0.1 mg/L, 4 Hrs

## CN(C)c1cc(NC(=O)CNC(C)(C)C)c(O)c2c1C[C@H]1C[C@H]3[C@H](N(C)C)C(O)=C(C(N)=O)C(=O)[C@@]3(O)C(O)=C1C2=O [Tigecycline]
[1]
  RRT 1.12: BRL (BRL means below reporting limit (meaning less than 0.05% of tigecycline peak))
  RRT 1.45: 0.07%
  RRT 1.58: BRL (BRL means below reporting limit (meaning less than 0.05% of tigecycline peak))
  RRT 1.64 Mino: 0.09%
  RRT 1.67 MW = 556: (<0.05) %
  RRT 1.85 MW = 597: 0.08%
  Strength: 19.240 mg/mL
  Total: 0.71%
[2]
  RRT 0.12 MW = 633: BRL (BRL means below reporting limit (meaning less than 0.05% of tigecycline peak))
  RRT 0.23 MW = 572: BRL (BRL means below reporting limit (meaning less than 0.05% of tigecycline peak))
  RRT 0.50 MW = 601: BRL (BRL means below reporting limit (meaning less than 0.05% of tigecycline peak))
  RRT 0.55 MW = 583: 0.07%
  RRT 0.58: BRL (BRL means below reporting limit (meaning less than 0.05% of tigecycline peak))
  RRT 0.64 9-Amino: BRL (BRL means below reporting limit (meaning less than 0.05% of tigecycline peak))
  RRT 0.74 Epimer: 0.27%
  RRT 0.76: 0.05%
  RRT 0.78 MW = 557: BRL (BRL means below reporting limit (meaning less than 0.05% of tigecycline peak))
  RRT 1.12: BRL (BRL means below reporting limit (meaning less than 0.05% of tigecycline peak))
  RRT 1.45: 0.07%
  RRT 1.58: BRL (BRL means below reporting limit (meaning less than 0.05% of tigecycline peak))
  RRT 1.64 Mino: 0.12%
  RRT 1.67 MW = 556: 0.07%
  RRT 1.85 MW = 597: 0.08%
  Strength: 19.240 mg/mL
  Total: 0.73%
[3]
  RRT 0.12 MW = 633: BRL (BRL means below reporting limit (meaning less than 0.05% of tigecycline peak))
  RRT 0.23 MW = 572: BRL (BRL means below reporting limit (meaning less than 0.05% of tigecycline peak))
  RRT 0.50 MW = 601: BRL (BRL means below reporting limit (meaning less than 0.05% of tigecycline peak))
  RRT 0.55 MW = 583: BRL (BRL means below reporting limit (meaning less than 0.05% of tigecycline peak))
  RRT 0.58: 0.08%
  RRT 0.64 9-Amino: BRL (BRL means below reporting limit (meaning less than 0.05% of tigecycline peak))
  RRT 0.74 Epimer: 0.29%
  RRT 0.76: BRL (BRL means below reporting limit (meaning less than 0.05% of tigecycline peak))
  RRT 0.78 MW = 557: BRL (BRL means below reporting limit (meaning less than 0.05% of tigecycline peak))
  RRT 1.12: BRL (BRL means below reporting limit (meaning less than 0.05% of tigecycline peak))
  RRT 1.45: 0.09%
  RRT 1.58: BRL (BRL means below reporting limit (meaning less than 0.05% of tigecycline peak))
  RRT 1.64 Mino: 0.09%
  RRT 1.67 MW = 556: (<0.05) %
  RRT 1.85 MW = 597: 0.08%
  Strength: 19.193 mg/mL
  Total: 0.62%
Run #N, pH 8.2, Oxygen = 0.1 mg/L
  RRT 1.12: BRL (BRL means below reporting limit (meaning less than 0.05% of tigecycline peak))
[4]
  RRT 0.12 MW = 633: BRL (BRL means below reporting limit (meaning less than 0.05% of tigecycline peak))
  RRT 0.23 MW = 572: BRL (BRL means below reporting limit (meaning less than 0.05% of tigecycline peak))
  RRT 0.50 MW = 601: BRL (BRL means below reporting limit (meaning less than 0.05% of tigecycline peak))
  RRT 0.55 MW = 583: BRL (BRL means below reporting limit (meaning less than 0.05% of tigecycline peak))
  RRT 0.58: 0.07%
  RRT 0.64 9-Amino: BRL (BRL means below reporting limit (meaning less than 0.05% of tigecycline peak))
  RRT 0.74 Epimer: 0.20%
  RRT 0.76: BRL (BRL means below reporting limit (meaning less than 0.05% of tigecycline peak))
  RRT 0.78 MW = 557: BRL (BRL means below reporting limit (meaning less than 0.05% of tigecycline peak))
  RRT 1.12: BRL (BRL means below reporting limit (meaning less than 0.05% of tigecycline peak))
  RRT 1.45: 0.07%
  RRT 1.58: BRL (BRL means below reporting limit (meaning less than 0.05% of tigecycline peak))
  RRT 1.64 Mino: (<0.05) %
  RRT 1.67 MW = 556: BRL (BRL means below reporting limit (meaning less than 0.05% of tigecycline peak))
  RRT 1.85 MW = 597: 0.11%
  Strength: 19.343 mg/mL
  Total: 0.46%
[5]
  RRT 0.12 MW = 633: BRL (BRL means below reporting limit (meaning less than 0.05% of tigecycline peak))
  RRT 0.23 MW = 572: BRL (BRL means below reporting limit (meaning less than 0.05% of tigecycline peak))
  RRT 0.50 MW = 601: BRL (BRL means below reporting limit (meaning less than 0.05% of tigecycline peak))
  RRT 0.55 MW = 583: 0.06%
  RRT 0.58: 0.06%
  RRT 0.64 9-Amino: BRL (BRL means below reporting limit (meaning less than 0.05% of tigecycline peak))
  RRT 0.74 Epimer: 0.29%
  RRT 0.76: 0.05%
  RRT 0.78 MW = 557: BRL (BRL means below reporting limit (meaning less than 0.05% of tigecycline peak))
  RRT 1.45: 0.09%
  RRT 1.58: BRL (BRL means below reporting limit (meaning less than 0.05% of tigecycline peak))
  RRT 1.64 Mino: 0.08%
  RRT 1.67 MW = 556: BRL (BRL means below reporting limit (meaning less than 0.05% of tigecycline peak))
  RRT 1.85 MW = 597: 0.09%
  Strength: 19.415 mg/mL
  Total: 0.72%
[6]
  RRT 0.12 MW = 633: BRL (BRL means below reporting limit (meaning less than 0.05% of tigecycline peak))
  RRT 0.23 MW = 572: BRL (BRL means below reporting limit (meaning less than 0.05% of tigecycline peak))
  RRT 0.50 MW = 601: BRL (BRL means below reporting limit (meaning less than 0.05% of tigecycline peak))
  RRT 0.55 MW = 583: BRL (BRL means below reporting limit (meaning less than 0.05% of tigecycline peak))
  RRT 0.58: 0.07%
  RRT 0.64 9-Amino: BRL (BRL means below reporting limit (meaning less than 0.05% of tigecycline peak))
  RRT 0.74 Epimer: 0.21%
  RRT 0.76: BRL (BRL means below reporting limit (meaning less than 0.05% of tigecycline peak))
